Test results from US10059708B2, “Therapeutic targeting of the interleukin 1 receptor-associated kinase 4 (IRAK4) in leukemias characterized by rearrangements in the mixed lineage leukemia gene (MLL-r)” (Northwestern University, priority 2016, dated 2018).

What was measured:
REH cells = assay: REH cell proliferation (trypan blue, Vi-CELL XR); type: cell-based, human; details: 500 nM IRAK4 inhibitor
Procedure: FIG. 4. […] Viable cells were seeded at 0.2 million/mL, and they were monitored by trypan blue exclusion staining and counted using a Vi-CELL XR cell counter. Data are represented as mean±SD (n=3). […] Data are represented as mean±SD (n=3). (C) Venn diagram of deregulated genes in SEM cells by IRAK1/4 and IRAK4 inhibitors. […] (D) Venn diagram of deregulated genes in SEM and REH cells by both inhibitors. Little overlap was observed between REH and SEM cells. […] Each cluster is represented by different colors and a circle node represents each enriched term. (G) UBE2O depletion and IRAK inhibition affect a common subset of genes in SEM cells. […] Heatmaps represent Z score-normalized values. See also FIG. 11.
Stabilization of MLL through IRAK Inhibition and UBE2O Depletion Regulates a Specific Gene Regulatory Network in MLL Leukemia. To measure the consequence of stabilizing MLL in MLL leukemia cells, we determined the effects of IRAK inhibition on cell proliferation of REH (MLL-germline leukemia) and SEM (MLL-AFF1) cells. Both of these cell lines are derived from precursor B cell ALL patient blast cells, and, therefore, they have been studied when comparing non-MLL (REH) and MLL-dependent (SEM) leukemia gene expression (Guenther et al., 2008).

[1] = system: MLL-rearranged AML and ALL leukemia cells; assay: Dose-dependent growth study with patient-derived leukemia cell lines; type: cell-based, human; details: different doses, 3 days
Procedure: (§1) FIG. 5. Determinants of the Increased Sensitivity of MLL Leukemia Cells to IRAK Inhibition (A) IRAK4 inhibitor-specific inhibition of MLL leukemia cell proliferation. Multiple MLL leukemia and non-MLL leukemia or lymphoma cell lines were cultured with different doses of IRAK4 inhibitor for 3 days. Data are represented as mean±SD (n=3). (B) Cell growth of MLL-AF9-positive AML MM6 cells is inhibited by IRAK inhibition. Data are represented as mean±SD (n=3). […] The p value was determined with the hypergeometric test. […] (E and F) Depletion of LGALS1 (E) and LMO2 (F) results in reduced growth of MM6 cells. MM6 cells were transduced with shGFP control (GFPi) or two different lentiviral shRNA constructs. After selection with puromycin for 4 days, viable cells were seeded at 0.2 million/mL and cultured for 3 more days before cell viability counting. Data represent the mean±SD (n=3; **p<0.005, one-way ANOVA). See also FIG. 12.
(§2) Determinants of the Increased Sensitivity of MLL Leukemia Cells to IRAK Inhibition. To further determine the effectiveness of IRAK inhibition for MLL leukemia cell growth, we performed dose-dependent studies with multiple patient-derived leukemia cell lines, including MLL leukemia and non-MLL leukemia or lymphoma cells.

[2] = system: MLL-AF6-positive ML2 leukemia cells; assay: Dose-dependent growth study, ML2 cells; type: cell-based, human; details: different doses, 3 days
Procedure: as §1, §2

MLL-AF9 leukemia = assay: Murine MLL-AF9 leukemia transplantation model; type: in vivo, C57BL/6 mice; details: treatment from day 10 after transplantation; IRAK1/4 inhibitor 8 mg/kg, IRAK4 inhibitor 75 mg/kg i.p. every other day; vehicle mice all dead by 31 days
From the text: After transformation of MLL-AF9, c-Kit+ HSPCs were transplanted into lethally irradiated C57BL/6 mice with 1 3 106 transformed cells and 2 3 105 support cells. Leukemia cells from primary AML mice were isolated and transplanted into sublethally irradiated C57BL/6 mice. Drug treatments were started at day 10 or 19 after transplantation. (B) Kaplan-Meier survival curves of secondary transplanted C57BL/6 mice after vehicle and IRAK1/4 or IRAK4 inhibitor treatment at day 19 (blast phase). Vehicle or IRAK inhibitors were administered every other day by intraperitoneal injection for a total of five treatments. Leukemia was confirmed at the endpoint for each transplant mouse. […] The p values were calculated using the log rank test. […] The p values were calculated using the log rank test. […]
We further assessed the effects of the IRAK inhibitors in vivo using the murine MLL-AF9 leukemia transplantation model (FIG. 7A) (Volk et al., 2014). […]
Murine MLL-AF9 Leukemia Model. […] The mice were monitored for signs of acute leukemia for 2-3 months and euthanized when leukemia was evident (weight loss below 16.75 g, reduced mobility, malaise, palpable spleen, and hunched back). […]
Animal Treatment. […] Mice were monitored for leukemia development and leukemia was verified after the mice were sacrificed upon signs of illness (weight loss below 16.75 g, partial paralysis, malaise, palpable spleen, and hunched back).

COc1cc2c(cc1OCCCN1CCN(C)CC1)ncc1c3ccc(C#N)cc3[nH]c21 [IRAK4 inhibitor] was tested, and the REH cell proliferation (REH cells) was “no detectable effect”, the “cell growth of MLL-rearranged versus non-MLL leukemia or lymphoma cells” value [1] was “preferentially impeded cell growth of MLL-rearranged AML and ALL leukemia cells” and the “sensitivity of ML2 cells (wild-type MLL allele deleted)” value [2] was “not sensitive”. For the same compound, the “mice that still did not develop MLL-AF9 leukemia as of day 55” value (MLL-AF9 leukemia) was “four of nine”.
